The text below walks through data of ChEMBL document CHEMBL1201862, “PubChem BioAssay data set” (2004).

Some test systems named below: ACHN; DU-145; HCC 2998; MCF7; MDA-MB-231; MDA-N; MOLT-4; NCI-H460; OVCAR-3; RXF 393; SF-539; SK-OV-3; SR; T47D; TK-10; U-251; A549; M14; NCI-H522; SNB-19.
What all share (test): DTP human tumour cell line panel, 48 h

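Results reflect a 48-hour exposure of cells in 96-well plates to compound at five concentrations. GI50 = concentration required for 50% inhibition of growth.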 Activity calls are given as the source filed them. Cut-off read from the data, not from the text of the source: active = GI50 up to about 1.1 µM and inactive = higher.

For the compound `Nc1ccn([C@H]2CO[C@@H](CO)[C@@H]2O)c(=O)n1`, the GI50 with ACHN, in the assay with DU-145, with HCC 2998, in the assay with MCF7, with MDA-MB-231 and in the assay on MDA-N was > 100 µM (inactive) throughout. The GI50 with MOLT-4, in the assay on NCI-H460, in the assay with OVCAR-3, with RXF 393, in the assay with SF-539 and in the assay with SK-OV-3 was > 100 µM (inactive) each time. The GI50 in the assay on SR, with T47D, in the assay on TK-10 and in the assay on U-251 was > 100 µM (inactive) throughout.

Take `C=C(C)[C@@H]1CCC2=C[C@H](OC2=O)[C@@]2(C)C[C@@H]2C(=O)/C=C(/C)C(=O)[C@H]1OC(C)=O`: the GI50 in the assay with A549 was 29.2 µM (inactive); with ACHN, 17.3 µM (inactive); with DU-145, 5.97 µM (inactive); in the assay on HCC 2998 it was 21.7 µM (inactive); in the assay on M14, 24.4 µM (inactive); with MCF7, 4.52 µM (inactive). In addition, the GI50 was 36.4 µM (inactive) in the assay with MDA-MB-231; 8.67 µM (inactive) with MDA-N; 5.66 µM (inactive) with MOLT-4; 30.1 µM (inactive) in the assay with NCI-H460; 4.3 µM (inactive) with NCI-H522; 14.3 µM (inactive) with OVCAR-3. Further, the GI50 in the assay with RXF 393 is 16 µM (inactive); with SF-539, 7.13 µM (inactive); in the assay with SK-OV-3 it was > 51.9 µM (inactive); in the assay with SNB-19 it was 29.2 µM (inactive); in the assay on T47D, 5.64 µM (inactive); in the assay on TK-10, 24.5 µM (inactive). The GI50 with U-251 was 28.6 µM (inactive).

`Cc1ccc(Nc2nc(C)c(C(=O)CC(=O)C(=O)Nc3c(C)cccc3C(C)(C)C)s2)cc1`: the GI50 in the assay on A549, with ACHN, in the assay with DU-145, in the assay with HCC 2998, in the assay on M14 and in the assay with MCF7 was > 100 µM (inactive) in each case. Also, the GI50 with MDA-MB-231 was 42.9 µM (inactive); in the assay on MDA-N, > 100 µM (inactive); in the assay on MOLT-4, > 100 µM (inactive); in the assay on NCI-H460, > 100 µM (inactive); in the assay on NCI-H522 it was > 100 µM (inactive); in the assay on OVCAR-3, > 100 µM (inactive). Further, the GI50 in the assay on RXF 393, with SF-539, in the assay on SK-OV-3, with SNB-19, in the assay with T47D and in the assay with TK-10 was > 100 µM (inactive) in each case. Besides, the GI50 in the assay with U-251 is 71.8 µM (inactive).

`CNC(=S)N(C1CCCCC1)C1CCCCC1`: the GI50 is 56.9 µM (inactive) with A549; 98.4 µM (inactive) with ACHN; > 100 µM (inactive) in the assay with DU-145; > 100 µM (inactive) with HCC 2998; > 100 µM (inactive) in the assay on M14; 54.8 µM (inactive) with MCF7. In addition, the GI50 in the assay with MDA-MB-231 was > 100 µM (inactive); in the assay with MDA-N, > 100 µM (inactive); with MOLT-4 it was 37.3 µM (inactive); in the assay on NCI-H460, 50.9 µM (inactive); with OVCAR-3, > 100 µM (inactive); with RXF 393, > 100 µM (inactive). For the same compound, the GI50 in the assay with SF-539 is > 100 µM (inactive); with SK-OV-3 it was > 100 µM (inactive); in the assay on SNB-19, > 100 µM (inactive); in the assay on SR it was 42.4 µM (inactive); in the assay with T47D, 44 µM (inactive); with TK-10, > 100 µM (inactive). Besides, the GI50 in the assay with U-251 was > 100 µM (inactive).

Regarding `Cc1nn2c(C(=O)N/N=C/c3ccc([N+](=O)[O-])cc3)c(C)nc2s1`, the GI50 in the assay on A549 was > 100 µM (inactive); in the assay on ACHN, 50 µM (inactive); in the assay on DU-145, > 100 µM (inactive); in the assay on HCC 2998, > 100 µM (inactive); with M14 it was > 100 µM (inactive); with MCF7, 90.4 µM (inactive). Also, the GI50 in the assay on MDA-MB-231 was 24.1 µM (inactive); in the assay on MDA-N, > 100 µM (inactive); in the assay with MOLT-4, 41 µM (inactive); in the assay on NCI-H460, > 100 µM (inactive); in the assay on NCI-H522, 51.2 µM (inactive); in the assay on OVCAR-3, > 100 µM (inactive). In addition, the GI50 with RXF 393 was > 100 µM (inactive); in the assay on SF-539 it was 31.4 µM (inactive); in the assay on SK-OV-3, 28.4 µM (inactive); in the assay on SNB-19, 45.9 µM (inactive); in the assay with T47D, > 100 µM (inactive); with TK-10, 36.7 µM (inactive). Moreover, in the assay with U-251, the GI50 is 23.6 µM (inactive).

Take `CSc1ccc(/C=C/C(=O)c2nc3ccccc3[nH]2)cc1`: the GI50 is 18.2 µM (inactive) in the assay on A549; 18.9 µM (inactive) in the assay on ACHN; 1.87 µM (inactive) with DU-145; 10.7 µM (inactive) in the assay with HCC 2998; 15.9 µM (inactive) in the assay with M14; 2.64 µM (inactive) with MCF7. Further, the GI50 in the assay with MDA-MB-231 was 10 µM (inactive); in the assay with MDA-N, 7.36 µM (inactive); in the assay on MOLT-4 it was 3.02 µM (inactive); in the assay with NCI-H460, 18.4 µM (inactive); in the assay on NCI-H522, 12.2 µM (inactive); with OVCAR-3, 16.6 µM (inactive). Moreover, the GI50 with SF-539 is 4.45 µM (inactive); in the assay on SK-OV-3, 27.5 µM (inactive); with SNB-19 it was 16.1 µM (inactive); in the assay on SR, 2.35 µM (inactive); in the assay with T47D, 3.95 µM (inactive); in the assay with TK-10, 3.58 µM (inactive).

Regarding `CCOC(=O)c1nnsc1NC(=O)NCCCCCCn1c(=O)n(CCCCCCNC(=O)Nc2snnc2C(=O)OCC)c(=O)n(CCCCCCNC(=O)Nc2snnc2C(=O)OCC)c1=O`, the GI50 is > 100 µM (inactive) in the assay with A549; 47 µM (inactive) with ACHN; 49.3 µM (inactive) in the assay with DU-145; 39.5 µM (inactive) in the assay with HCC 2998; > 100 µM (inactive) in the assay on M14; 97.3 µM (inactive) in the assay on MCF7. Also, the GI50 was 15.2 µM (inactive) with MDA-MB-231; 36.8 µM (inactive) with MDA-N; 31.1 µM (inactive) in the assay on MOLT-4; 21.5 µM (inactive) in the assay on NCI-H460; 57.8 µM (inactive) in the assay with OVCAR-3; 13.5 µM (inactive) in the assay on RXF 393. The GI50 in the assay with SK-OV-3 was 40.2 µM (inactive); in the assay on SNB-19, 18.6 µM (inactive); with SR it was > 100 µM (inactive); in the assay with T47D, 33 µM (inactive); in the assay on U-251, 19.3 µM (inactive).

`Nn1c(Cc2ccc([N+](=O)[O-])cc2)n[nH]c1=O`: the GI50 with A549, in the assay with ACHN, in the assay with DU-145, in the assay on HCC 2998, in the assay on M14 and with MCF7 was > 100 µM (inactive) each time. In addition, the GI50 in the assay with MDA-MB-231, in the assay on MDA-N, in the assay with MOLT-4, with NCI-H460, in the assay with NCI-H522 and in the assay on OVCAR-3 was > 100 µM (inactive) throughout. Further, the GI50 with SF-539, with SK-OV-3, with SNB-19, in the assay with SR, with T47D and in the assay with U-251 was > 100 µM (inactive) each time.

As to `O=C(/C=C(\N=P(c1ccccc1)(c1ccccc1)c1ccccc1)C(F)(F)C(F)(F)C(F)(F)C(F)(F)C(F)(F)C(F)(F)C(F)(F)F)c1ccccc1`, the GI50 in the assay with A549, in the assay with ACHN, in the assay on DU-145, in the assay on HCC 2998, in the assay with M14 and with MCF7 was > 100 µM (inactive) throughout. Besides, the GI50 with MDA-MB-231 was > 10 µM (inactive); with MDA-N, > 100 µM (inactive); in the assay on MOLT-4 it was > 100 µM (inactive); with NCI-H460 it was > 100 µM (inactive); with OVCAR-3 it was > 100 µM (inactive); in the assay on RXF 393, > 100 µM (inactive). Besides, the GI50 in the assay on SF-539, with SK-OV-3, in the assay with SNB-19, in the assay with SR, in the assay on T47D and in the assay with TK-10 was > 100 µM (inactive) in each case. The GI50 in the assay on U-251 is > 100 µM (inactive).

As to `Cc1cc(-c2nc3cccc(O)c3s2)ccc1N`, the GI50 in the assay with A549 is 15.7 µM (inactive); in the assay with ACHN, 18.2 µM (inactive); with DU-145 it was > 100 µM (inactive); with HCC 2998, 45.3 µM (inactive); in the assay with M14, 16.2 µM (inactive); in the assay on MCF7, 12.5 µM (inactive). Moreover, the GI50 was 31.3 µM (inactive) with MDA-MB-231; 31.3 µM (inactive) in the assay on MDA-N; 28.2 µM (inactive) in the assay on MOLT-4; 29.1 µM (inactive) in the assay on NCI-H460; 44.4 µM (inactive) in the assay on OVCAR-3; > 100 µM (inactive) with RXF 393. Moreover, the GI50 in the assay with SF-539 is 57.4 µM (inactive); with SK-OV-3, 52.8 µM (inactive); in the assay with SNB-19 it was < 0.01 µM (active); with SR, 40.8 µM (inactive); with T47D, 62.5 µM (inactive); with TK-10, 33.6 µM (inactive). Also, the GI50 in the assay on U-251 was 41.1 µM (inactive).

With `COc1cc([C@@H]2c3cc4c(c(O)c3C[C@H]3COC(=O)[C@@H]32)OCO4)cc(OC)c1OC` [BETA-PELTATIN A], the GI50 in the assay with A549 was 0.015 µM (active); with ACHN, 0.0241 µM (active); with DU-145, < 0.0241 µM (active); in the assay with HCC 2998, 0.015 µM (active); in the assay with M14 it was 0.0241 µM (active); in the assay on MCF7, 0.015 µM (active). Besides, the GI50 in the assay with MDA-MB-231 is 0.00596 µM (active); with MDA-N it was 0.000284 µM (active); in the assay on MOLT-4, 0.015 µM (active); in the assay on NCI-H460, 0.0254 µM (active); in the assay with NCI-H522 it was 0.0676 µM (active); with OVCAR-3 it was 0.015 µM (active). In addition, the GI50 in the assay with SNB-19 is 0.015 µM (active); in the assay on SR, 109 µM (inactive); in the assay on T47D, 51.9 µM (inactive); in the assay on TK-10, 31.6 µM (inactive).

The term GI50 denotes the concentration at which growth is held to half of that of the control.
